The values that follow are results of earlier work, collected in US20090093506A1, “Copper antagonist compositions” (priority 2007, published 2009).

Assay in data set [1]: not given
This is another data set of the same source.

The conditions of data set [2]: solution of the free base itself.

In the case of `CC(C)(S)[C@@H](N)C(=O)O` [Penicillamine, 3-mercapto-D-valine], the solubility in acetone entry (acetone) is listed as “insoluble”. Further, the solubility in alcohol entry (alcohol) is recorded as “slightly soluble”. Besides, the solubility in benzene entry (benzene) is listed as “insoluble”. For the same compound, the “solubility in carbon tetrachloride” value (carbon tetrachloride) is given as “insoluble”. In addition, where the note is “ether”, the solubility in ether result was “insoluble”. The solubility in water result (water) is “freely soluble”.
As to `CC(=O)[O-].CC(=O)[O-].[Zn+2]` [Zinc acetate], the “long-term or major side effects” value in data set [1] (patients with Wilson's disease) was “has not shown any long-term or major side effects”.
On to `COCc1c(C(C)C)nc(C(C)C)c(/C=C/[C@@H](O)C[C@@H](O)CC(=O)O)c1-c1ccc(F)cc1` [cerivastatin], for which, in data set [1] (patients receiving the drug, withdrawn from the U.S. market August 2001), the rhabdomyolysis entry is “seen to occur more often”.
For the compound `NCCNCCNCCN` [trientine, triethylenetetramine], the “pH of a solution” value in data set [2] was 14.
